According to PubChem BioAssay AID493102 (Broad Institute, 2011):

What follows are compounds tested on SK-MEL-5 TRPM1-promoter luciferase reporter, 24 h (assay: reducers of TRPM1 reporter luminescence, concentration series – cell-based, SK-MEL-5, cherry-picked, set 4, MITF inhibitor project, dose response (AID 493102);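 further: actives lower the luciferase signal so the potency reflects inhibition of reporter expression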).
O=C1C(Cl)=C(N2CCN(c3ccccc3[N+](=O)[O-])CC2)C(=O)c2ccccc21 was tested, and the AC50 was 3.59 µM. Cc1ccc(NC(=O)c2cc(N3C(=O)C=CC3=O)ccc2N2CCOCC2)cc1 was tested, and the AC50 was 11.6 µM. Work on COc1ccc2cc3cc(C(=O)NCCc4ccc(OC)c(OC)c4)oc3nc2c1 yielded an AC50 of 16.2 µM. Compound O=C(O)c1ccc(Nc2nc3c(s2)CCCC3)cc1 has an AC50 of 6.49 µM. CCOc1ccc(-c2cc(C)[n+](CCO)c(-c3ccc(OCC)cc3)c2)cc1 showed an AC50 of 11.1 µM. Cc1c(C#N)c(O)n(CCO)c(=O)c1N=Nc1ccc2c(c1)COC2=O showed an AC50 of 9.69 µM. Cc1ccc(C)c(S(=O)(=O)N2CCN(Cc3ccc(O)c4ncccc34)CC2)c1 gave an AC50 of 4.44 µM. Compound Cc1ccccc1-n1ncc2c([N+](=O)[O-])cc([N+](=O)[O-])cc21 has an AC50 of 8.7 µM. Work on O=c1nc(N/N=C/c2ccccn2)cn[nH]1 yielded an AC50 of 4.65 µM. O=C(O)c1cccc(COc2ccccc2Cl)c1 was tested, and the AC50 was 0.756 µM. With COc1cc(SC)ccc1C(=O)Nc1nc(C)cs1 the AC50 was 4.81 µM. O=C(/C=C\c1ccccc1)NCC(=O)N/N=C/c1ccc(O)cc1O was tested, and the AC50 was 7.99 µM. O=C(/C=C/c1ccc(Cl)cc1)c1ccc([N+](=O)[O-])o1 gave an AC50 of 5.32 µM. Cc1ccc(C(=O)N/C(=C\c2ccc(-c3ccccc3[N+](=O)[O-])o2)C(=O)NCCCN(C)C)cc1 was tested, and the AC50 was 3.28 µM. Work on COC1=C(c2ccccc2)C(=O)c2ccccc2C1=O yielded an AC50 of 9.05 µM. For O=C(c1nnsc1S(=O)(=O)c1ccc(Cl)cc1)N1CCOCC1, the AC50 was 9.51 µM. N#Cc1cc2c(nc1SC1CC(=O)N(c3ccccc3)C1=O)CCC2 (centres undefined) was tested, and the AC50 was 1.78 µM. In the case of Cc1ccc(S(=O)(=O)CC(CN2CCCCC2)N2CCCCC2)cc1 (centres undefined), the AC50 is reported as 8.1 µM. COC(=O)C1=C(C)N(Cc2ccccc2)C(=NCc2ccccc2)N[C@H]1c1ccccc1 showed an AC50 of 18 µM. Cc1ccc2nc(NC(=O)CCCC(=O)O)sc2c1 showed an AC50 of 12.1 µM. In the case of CC(Oc1cccc(Br)c1)C(=O)NNC(=O)c1ccccn1 (centres undefined), the AC50 is reported as 7.18 µM. In the case of CCCN(CC(=O)Nc1ccccc1C)C(=O)CCl, the AC50 is reported as 4.04 µM. COC(=O)C1=C(CN2CCCc3ccccc32)NC(=O)NC1c1ccc(F)cc1 (centres undefined) was tested, and the AC50 was 2.16 µM. Work on O=C(N/N=C/c1ccc(O)c2ncccc12)c1cccc(Br)c1 yielded an AC50 of 7.28 µM. For O=C(Cn1ncc(Cl)c(Cl)c1=O)N1CCc2ccccc21, the AC50 was 6.1 µM. Cn1nc([N+](=O)[O-])nc1S(C)(=O)=O showed an AC50 of 9.2 µM. For Cc1cc(C)c2c(N)c(C(=O)Nc3ncc(C)s3)sc2n1, the AC50 was 1.09 µM. With Cc1ccc(C)c(-n2c3nc(=O)[nH]c(=O)c-3cc3cc([N+](=O)[O-])ccc32)c1 the AC50 was 8.42 µM. COc1cc(SC)ccc1C(=O)Nc1ccc(Br)cn1 gave an AC50 of 7.36 µM. Compound CN1CCN(c2ccc(NC(=O)c3ccc([N+](=O)[O-])o3)cc2Cl)CC1 has an AC50 of 9.02 µM. Compound S=C=Nc1cccc(C2(N3CCCCC3)CCCCC2)c1 has an AC50 of 7.36 µM. COc1ccc(-c2cc3c(nn2)-c2ccccc2C3=O)cc1 showed an AC50 of 4.22 µM. Compound CN(C)CCCN(C(=O)c1ccc(Cl)s1)c1nc2cc3c(cc2s1)OCO3 has an AC50 of 22.9 µM. Oc1c(Cl)cc(Cl)cc1/C=N/Nc1ncc(Br)cn1 showed an AC50 of 7.84 µM. C=CCN1C(=O)/C(=C/c2cc(C)n(-c3cccnc3)c2C)C(=O)NC1=S gave an AC50 of 16.8 µM. For CC1CCN(CC2C(=O)O[C@@H]3C[C@@]4(C)CCC[C@H](C)C4=C[C@H]23)CC(C)(C)C1 (some centres undefined), the AC50 was 16.1 µM. CC1=NNC(=O)/C1=C\c1cn(-c2ccccc2)nc1-c1ccc(F)cc1 showed an AC50 of 6.52 µM. Cc1ccc(NC(=O)c2ccc([N+](=O)[O-])o2)cc1S(=O)(=O)N1CCOCC1 showed an AC50 of 11.4 µM. CC(C)C(CCNC1CCN(C)CC1)c1ccc(Cl)cc1 (centres undefined) gave an AC50 of 11.9 µM. Cn1nnnc1Sc1ncnc2scc(-c3cccc(F)c3)c12 showed an AC50 of 5.98 µM. Compound O=C(CNC(=O)c1ccccc1)N/N=C/c1ccc([N+](=O)[O-])s1 has an AC50 of 5.34 µM. Work on Cc1c(N=C2C=CC(=O)c3ccccc32)c(=O)n(-c2ccccc2)n1C yielded an AC50 of 5.26 µM. CCOC(=O)c1ccc(NC(=O)c2ccc(C)c(S(=O)(=O)N3CCOCC3)c2)cc1 showed an AC50 of 5.36 µM. COc1ccccc1N1C(=O)N(C(C)=O)C2C1Nc1ccccc1N2C (centres undefined) showed an AC50 of 10.5 µM. Cc1ccc(NC(=O)CCl)cc1S(=O)(=O)N1CCCCCC1 showed an AC50 of 7.55 µM. In the case of Cc1cc(C(=O)CCl)c(C)n1CCc1ccc(F)cc1, the AC50 is reported as 4.25 µM. Cc1c(NC(=O)C(C)OC(=O)c2ccc([N+](=O)[O-])s2)c(=O)n(-c2ccccc2)n1C (centres undefined) gave an AC50 of 34.1 µM. With Cc1ccc(-c2cn(-c3ccc(SC(F)F)cc3)c3[n+]2CCC3)cc1 the AC50 was 1.64 µM. In the case of Cc1ccc(NC(=O)CCC(=O)N/N=C/c2ccc([N+](=O)[O-])o2)cc1C, the AC50 is reported as 6.25 µM. O=C(COC(=O)c1ccc(F)c([N+](=O)[O-])c1)NC(=O)NCc1ccccc1 gave an AC50 of 13.6 µM. Work on O=C(Cc1ccc2c(c1)OCO2)NN=Cc1ccc([N+](=O)[O-])o1 yielded an AC50 of 8.55 µM. COc1cc(C(=O)Oc2c(CN3CCOCC3)cc(Cl)c3cccnc23)cc(OC)c1OC gave an AC50 of 7.56 µM. With O=C(Cn1ncc(Cl)c(Cl)c1=O)N1CCOCC1 the AC50 was 9.82 µM. O=C(Cn1ncc(Cl)c(Cl)c1=O)c1ccc(Cl)cc1 showed an AC50 of 8.81 µM. With Cc1ccc(-c2cn3cc(C)ccc3n2)cc1 the AC50 was 2.03 µM. Work on C#CC(=O)N(c1ccc(OC)cc1OC)C(C(=O)NC1CCCC1)c1cccs1 (centres undefined) yielded an AC50 of 4.73 µM. With CCOC(=O)c1ccc(NC2=CC(=O)C(=O)c3ccccc32)cc1 the AC50 was 4.3 µM. Work on Cc1nc2ccccn2c1C(=O)N/N=C/c1ccc([N+](=O)[O-])o1 yielded an AC50 of 8.03 µM. O=C(Nc1ccc(N2CCCC2)c(Cl)c1)c1ccc([N+](=O)[O-])o1 showed an AC50 of 11.1 µM. With CC(C)n1cc(/C=C/c2cc[n+](C)cc2)c2ccccc21 the AC50 was 8.14 µM. Work on Cc1nc2ccccn2c1C(=O)/C=C/c1cccc([N+](=O)[O-])c1 yielded an AC50 of 6.9 µM. Compound Cc1ccc(C(C)C)c(OCc2nn(CC(=O)c3ccc(Cl)cc3)c3[n+]2CCCCC3)c1 has an AC50 of 9.83 µM. Cc1ccc(C(O)(c2ccc(C)c(C)c2)C2CN3CCC2CC3)cc1C (centres undefined) was tested, and the AC50 was 10.1 µM. Work on CC(=O)c1ccc(S(=O)(=O)N2CCN(C(=O)/C=C/c3ccc4ccccc4n3)CC2)cc1 yielded an AC50 of 12 µM. In the case of C/C(=N\NC(=O)COc1ccccc1-c1ccccc1)c1ccccn1, the AC50 is reported as 4.58 µM. O=C1NC(=O)N(Cc2ccccc2)C(=O)/C1=C/C=C/c1ccco1 showed an AC50 of 4.85 µM. O=C(N/N=C/c1ccc([N+](=O)[O-])s1)c1ccccc1Br showed an AC50 of 3.65 µM. In the case of CCC(=O)N1CCN(c2ccc(NC(=O)c3ccc([N+](=O)[O-])o3)cc2)CC1, the AC50 is reported as 8.69 µM. O=C1c2cc(F)ccc2-n2c1nc1ccccc1c2=O showed an AC50 of 1.05 µM. Work on CC1=C(CC(=O)c2ccccc2)C(=O)c2ccccc2C1=O yielded an AC50 of 7.15 µM. Nc1ccc(-c2nc3c(Cl)cc(N)cc3[nH]2)cc1 showed an AC50 of 3.76 µM. Compound O=C(O)c1ccc(C(=O)Nc2ccc(F)cc2)cc1 has an AC50 of 19.8 µM. For Cc1cc(C)c2nc3nc(C)cc(C)c3c(N)c2c1, the AC50 was 5.72 µM. O=C(CNc1cccc([N+](=O)[O-])c1)N/N=C/c1ccc([N+](=O)[O-])o1 gave an AC50 of 8.63 µM. With O=C(Nc1ccc(OC(=O)N2CCCCC2)cc1)N1CCOCC1 the AC50 was 27.4 µM. C/C(=C\c1ccc(N(C)C)cc1)[N+](=O)[O-] gave an AC50 of 13.1 µM. With Cc1c(C#N)c(NC(=O)CCl)n(Cc2cccs2)c1C the AC50 was 7.06 µM. Work on CN1CCC(N(C)C(=O)/C=C/c2cn(-c3ccccc3)nc2-c2cccs2)CC1 yielded an AC50 of 9.82 µM. Work on CCN1CCCC1CNC(=O)c1ccc2c(c1)NC(=O)/C(=C\c1ccc(C)cc1)S2 (centres undefined) yielded an AC50 of 18.9 µM. CN(C)c1ccc(/C=C2\SC(=O)N(CCc3nnc(N)s3)C2=O)cc1 gave an AC50 of 2.54 µM. C=CCn1c(C)cc(C2=NNC(=NC(C)(C)C)SC2)c1C gave an AC50 of 4.09 µM. Work on CC(NC(=O)c1ccc([N+](=O)[O-])o1)C12CC3CC(CC(C3)C1)C2 (centres undefined) yielded an AC50 of 15.1 µM. For O=C(N/N=C/c1ccc([N+](=O)[O-])o1)c1cc2ccccc2o1, the AC50 was 5.99 µM. CC(C)(C)C(=O)Cn1ncc(Cl)c(Cl)c1=O was tested, and the AC50 was 10.4 µM. Work on O=C(Cn1cc(/C=C\[N+](=O)[O-])c2ccccc21)Nc1ccccc1 yielded an AC50 of 7.46 µM. O=C1C=CC(=C(c2ccc(O)cc2)c2ccc(O)cc2)C=C1 was tested, and the AC50 was 9.92 µM. With N#CC(C#N)=C1C=CC=CN1/C(=C\c1ccco1)C(=O)c1ccc(Cl)cc1 the AC50 was 6.85 µM. For CC(=O)N(\C=C/C=C/C=C1\Sc2ccccc2C1=O)c1ccccc1, the AC50 was 8 µM. Work on CC(C)(C)c1ccc(C(=O)N2CCCCCC2=O)cc1 yielded an AC50 of 1.12 µM. CC(C)c1ccc(/C=C2\SC(=S)N(CCC(=O)N3CCCCC3CCO)C2=O)cc1 (centres undefined) showed an AC50 of 7.43 µM. With Nc1nnnn1/N=C/C(Br)=C/c1ccccc1 the AC50 was 5.44 µM. In the case of COc1ccc2oc(C(=O)Nc3ccc(S(=O)(=O)N(C)C4CCN(C)CC4)cc3)c(C)c2c1, the AC50 is reported as 13 µM. CCOc1ccc(-n2c(-c3ccc(OC)cc3)c[n+]3c2CCCCC3)cc1 was tested, and the AC50 was 2.13 µM. In the case of N=c1n(CC(=O)c2ccc(Br)cc2)c2ccccc2n1Cc1ccccc1, the AC50 is reported as 6.41 µM. CCOc1ccc(NC(=O)CCC(=O)N/N=C/c2ccc([N+](=O)[O-])s2)cc1 gave an AC50 of 6.21 µM. In the case of COCCn1c(C)cc(C(=O)CSc2nnc(C)s2)c1C, the AC50 is reported as 3.04 µM. Work on CCOC(=O)N1CCC(NC(=O)C2CCCN(Cc3nc(-c4cccc(C)c4)oc3C)C2)CC1 (centres undefined) yielded an AC50 of 34.9 µM. With Cc1ccc(NC(=O)CN(C)C(=O)Cn2ncc(Cl)c(Cl)c2=O)cc1 the AC50 was 9.16 µM. With N#CC1=C(c2ccccc2)/C(=C/c2ccccc2)OC1=O the AC50 was 4.25 µM. Cn1nnnc1Sc1ncnc2scc(-c3ccc[nH]3)c12 was tested, and the AC50 was 7.32 µM. For O=C(COC(=O)c1ccc[nH]c1=O)Nc1ccc(N2CCCCC2)cc1, the AC50 was 1.03 µM. For CC1CCC(C(C)C)C(OC(=O)Cn2c(-c3ccc(Br)cc3)[n+](C)c3ccccc32)C1 (centres undefined), the AC50 was 7.12 µM. COc1cc(NC(=O)c2ccc([N+](=O)[O-])o2)ccc1NC(=O)c1cccs1 was tested, and the AC50 was 8.46 µM. O=C1CCC2S/C(=C/Nc3ccc(C(F)(F)F)cc3)C(=O)N12 (centres undefined) gave an AC50 of 3.57 µM. With COc1cc(C2C(C#N)=C(N)Oc3cc(N(C)C)ccc32)cc2c1OCO2 (centres undefined) the AC50 was 0.601 µM. Compound Cc1cc(/C=C2\Sc3ccccc3N2C)cc(C)[n+]1CC1CCCO1 (centres undefined) has an AC50 of 1.82 µM. COC(=O)c1ccc(Nc2cc(C)nc3ccc(C)cc23)cc1 gave an AC50 of 6.85 µM. In the case of Cc1cc(C)c(C#N)c(SCc2nnc(-c3ccccc3)o2)n1, the AC50 is reported as 0.024 µM. Compound CCc1cc[n+](C2=C([O-])c3ccccc3C(=O)/C2=N\S(=O)(=O)c2cccs2)cc1 has an AC50 of 1.15 µM. Cc1ccc(-n2[nH]c(=O)c(-c3ccccn3)c2C)cc1 showed an AC50 of 3.23 µM. Compound CCCCCCCNC(=O)C1(CC2CC(c3ccc(Cl)cc3)=NO2)CCNCC1 (centres undefined) has an AC50 of 14 µM. CCN(CCO)c1ccc(N=Nc2cc(C)[nH]n2)cc1 showed an AC50 of 3.6 µM. With CCOC(=O)CCc1ccc(NC(=O)/C=C/c2ccc([N+](=O)[O-])o2)cc1 the AC50 was 6.83 µM. In the case of CCCCn1c(=N)n(CCOc2ccc(C)cc2)c2ccccc21, the AC50 is reported as 11.3 µM.
